Measured values published in the NIST ThermoML archive (doi:10.1021/acs.jced.5b00367).
± gives the expanded uncertainty stated by the source.

Assay: wn = mass fraction of the nth substance listed
Details: 101 kPa, Liquid, Alternating current cell with electrodes, w1 = 0.01

CCCCCCCCCC[N+](CC)(CC)CCCCCCCCCC.[Br-] [didecyldiethylammonium bromide] + O
Details | electrical conductivity [S/m]
277.55 K | 0.0116 ± 0.0046
277.75 K | 0.0115 ± 0.0046
277.85 K | 0.0116 ± 0.0046
277.95 K | 0.0116 ± 0.0046
278.15 K | 0.0117 ± 0.0047
278.25 K | 0.0117 ± 0.0047
278.35 K | 0.0117 ± 0.0047
278.45 K | 0.0116 ± 0.0046
278.55 K | 0.0116 ± 0.0046
278.65 K | 0.0116 ± 0.0046
278.75 K | 0.0117 ± 0.0047
278.85 K | 0.0117 ± 0.0047
279.05 K | 0.0118 ± 0.0047
279.15 K | 0.0118 ± 0.0047
279.25 K | 0.0118 ± 0.0047
279.35 K | 0.0119 ± 0.0047
279.55 K | 0.012 ± 0.0048
279.65 K | 0.012 ± 0.0048
279.85 K | 0.012 ± 0.0048
279.95 K | 0.012 ± 0.0048
280.15 K | 0.0121 ± 0.0048
280.25 K | 0.0121 ± 0.0049
280.35 K | 0.0122 ± 0.0049
280.45 K | 0.0122 ± 0.0049
280.55 K | 0.0123 ± 0.0049
280.65 K | 0.0123 ± 0.0049
280.75 K | 0.0123 ± 0.0049
280.95 K | 0.0123 ± 0.0049
281.05 K | 0.0124 ± 0.005
281.15 K | 0.0124 ± 0.005
281.25 K | 0.0124 ± 0.005
281.35 K | 0.0125 ± 0.005
281.45 K | 0.0126 ± 0.005
281.55 K | 0.0126 ± 0.005
281.65 K | 0.0127 ± 0.0051
281.75 K | 0.0127 ± 0.0051
281.85 K | 0.0127 ± 0.0051
281.95 K | 0.0127 ± 0.0051
282.05 K | 0.0128 ± 0.0051
282.15 K | 0.0129 ± 0.0051
282.35 K | 0.0128 ± 0.0051
282.45 K | 0.0129 ± 0.0052
282.55 K | 0.013 ± 0.0052
282.65 K | 0.013 ± 0.0052
282.75 K | 0.0131 ± 0.0052
282.85 K | 0.0131 ± 0.0052
282.95 K | 0.0131 ± 0.0053
283.05 K | 0.0132 ± 0.0053
283.15 K | 0.0132 ± 0.0053
283.25 K | 0.0133 ± 0.0053
283.35 K | 0.0133 ± 0.0053
283.45 K | 0.0134 ± 0.0053
283.55 K | 0.0134 ± 0.0053
283.75 K | 0.0135 ± 0.0054
283.85 K | 0.0136 ± 0.0054
283.95 K | 0.0136 ± 0.0054
284.05 K | 0.0136 ± 0.0054
284.15 K | 0.0137 ± 0.0055
284.25 K | 0.0137 ± 0.0055
284.35 K | 0.0138 ± 0.0055
284.45 K | 0.0139 ± 0.0056
284.55 K | 0.0138 ± 0.0055
284.65 K | 0.0139 ± 0.0056
284.75 K | 0.014 ± 0.0056
284.85 K | 0.0141 ± 0.0056
284.95 K | 0.0141 ± 0.0056
285.05 K | 0.0143 ± 0.0057
285.15 K | 0.0143 ± 0.0057
285.25 K | 0.0142 ± 0.0057
285.35 K | 0.0144 ± 0.0058
285.45 K | 0.0145 ± 0.0058
285.55 K | 0.0146 ± 0.0058
285.65 K | 0.0146 ± 0.0058
285.75 K | 0.0148 ± 0.0059
285.85 K | 0.0147 ± 0.0059
285.95 K | 0.015 ± 0.006
286.05 K | 0.015 ± 0.006
286.15 K | 0.0152 ± 0.0061
286.25 K | 0.0152 ± 0.0061
286.35 K | 0.0154 ± 0.0062
286.45 K | 0.0155 ± 0.0062
286.55 K | 0.0157 ± 0.0063
286.65 K | 0.0158 ± 0.0063
286.75 K | 0.016 ± 0.0064
286.85 K | 0.0161 ± 0.0065
286.95 K | 0.0164 ± 0.0066
287.05 K | 0.0164 ± 0.0066
287.15 K | 0.0167 ± 0.0067
287.25 K | 0.0169 ± 0.0067
287.35 K | 0.0172 ± 0.0069
287.45 K | 0.0175 ± 0.007
287.55 K | 0.0177 ± 0.0071
287.65 K | 0.0179 ± 0.0072
287.75 K | 0.0182 ± 0.0073
287.85 K | 0.0186 ± 0.0075
287.95 K | 0.0189 ± 0.0076
288.05 K | 0.0192 ± 0.0077
288.15 K | 0.0196 ± 0.0079
288.25 K | 0.0201 ± 0.0081
288.35 K | 0.0206 ± 0.0083
288.45 K | 0.021 ± 0.0084
288.55 K | 0.0213 ± 0.0086
288.65 K | 0.0218 ± 0.0087
288.75 K | 0.022 ± 0.0088
288.85 K | 0.0225 ± 0.009
288.95 K | 0.0227 ± 0.0091
289.05 K | 0.0228 ± 0.0091
289.15 K | 0.0233 ± 0.0093
289.25 K | 0.0238 ± 0.0095
289.35 K | 0.0241 ± 0.0097
289.45 K | 0.0243 ± 0.0098
289.55 K | 0.0249 ± 0.01
289.75 K | 0.0256 ± 0.01
289.85 K | 0.0262 ± 0.011
289.95 K | 0.0267 ± 0.011
290.05 K | 0.0274 ± 0.011
290.15 K | 0.028 ± 0.011
290.25 K | 0.0287 ± 0.012
290.35 K | 0.0297 ± 0.012
290.45 K | 0.0305 ± 0.012
290.55 K | 0.0311 ± 0.013
290.65 K | 0.0319 ± 0.013
290.75 K | 0.0329 ± 0.013
290.85 K | 0.0339 ± 0.014
290.95 K | 0.0352 ± 0.014
291.15 K | 0.0365 ± 0.015
291.25 K | 0.0379 ± 0.015
291.35 K | 0.0395 ± 0.016
291.45 K | 0.0401 ± 0.016
291.55 K | 0.0419 ± 0.017
291.65 K | 0.0447 ± 0.018
291.75 K | 0.0451 ± 0.018
291.85 K | 0.047 ± 0.019
291.95 K | 0.0496 ± 0.021
292.05 K | 0.0526 ± 0.022
